Reference: paper PMC9844085, “Bioinformatics-Structural Approach to the Search for New D-Amino Acid Oxidases” (Acta Naturae, 2022)

Molecular target: T1, NhyDAAO (Natronosporangium hydrolyticum, UniProt A0A895YFV4)
T1 construct: gene JQS43_10680; recombinant, gene cloned, expression in E. coli in progress
T1 sequence (A0A895YFV4 1-316): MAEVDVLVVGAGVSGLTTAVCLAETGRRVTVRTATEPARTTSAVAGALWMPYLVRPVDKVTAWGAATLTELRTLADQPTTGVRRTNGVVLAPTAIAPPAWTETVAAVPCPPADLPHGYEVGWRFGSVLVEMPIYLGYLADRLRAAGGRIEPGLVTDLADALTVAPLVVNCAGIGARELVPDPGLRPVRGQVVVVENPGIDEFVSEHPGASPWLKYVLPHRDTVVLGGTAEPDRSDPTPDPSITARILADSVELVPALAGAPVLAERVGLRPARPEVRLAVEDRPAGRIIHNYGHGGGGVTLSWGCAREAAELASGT
Assay: D-amino acid oxidase activity, preliminary experiments, method not given
Assay type: cell-based
Details: conditions and enzyme purity not told; named among the best substrates

Structure (SMILES): CC(C)C[C@@H](N)C(=O)O [D-Leu]
- D-amino acid oxidase activity, preliminary experiments, method not given: Preliminary experiments confirmed that D-Leu and D-Phe are the best substrates for NhyDAAO

Structure (SMILES): N[C@H](Cc1ccccc1)C(=O)O [D-Phe]
- D-amino acid oxidase activity, preliminary experiments, method not given: Preliminary experiments confirmed that D-Leu and D-Phe are the best substrates for NhyDAAO
